The results in this text go back to PubChem BioAssay (NCI).

Test systems include NCI-H460 lung; LOX IMVI melanoma; ACHN renal; SF-268 CNS; NCI-H23 lung; SF-539 CNS; NCI/ADR-RES ovarian; CCRF-CEM leukemia; SK-MEL-28 melanoma; SW-620 colon.
Common to all, as to assay: DTP human tumour cell line panel, 48 h

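Growth conditions: 96-well plates. Treatment: test compound, 48 hours, 5 concentrations. Analysis: linear interpolation between bracketing concentrations; unreached endpoints set to highest concentration. Abbreviation: GI50, concentration required for 50% inhibition of growth. TGI is the concentration that stops growth completely.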

As usually defined, the GI50 is the concentration that inhibits growth by half. One may read the TGI as the concentration giving total growth inhibition. A high value points to less potent growth arrest. `Cc1ccc(-c2nc3nc(-c4ccc(F)cc4)nc(N4CCNCC4)c3o2)cc1`: the GI50 with NCI-H460 lung is 1.94 µM; with LOX IMVI melanoma, 1.66 µM; in the test with ACHN renal, 1.79 µM; with SF-268 CNS, 1.93 µM; in the test with NCI-H23 lung it was 12 µM; with SF-539 CNS, 1.67 µM. In addition, the GI50 was 2.11 µM with NCI/ADR-RES ovarian, 1.91 µM with CCRF-CEM leukemia, 14.9 µM with SK-MEL-28 melanoma and 1.76 µM in the test on SW-620 colon. Further, the concentration for total growth inhibition (TGI) came out at 3.77 µM with NCI-H460 lung; 3.07 µM in the test on LOX IMVI melanoma; 3.19 µM in the test on ACHN renal; 4.35 µM in the test with SF-268 CNS; 27.6 µM in the test on NCI-H23 lung; 3.12 µM with SF-539 CNS. Besides, the total growth inhibition concentration (TGI) came out at 4.47 µM in the test on NCI/ADR-RES ovarian, 4.74 µM in the test with CCRF-CEM leukemia, 28.7 µM with SK-MEL-28 melanoma and 3.61 µM in the test with SW-620 colon.

In the case of `O=Cc1cccc2ccc3ccccc3c12`, the TGI in the test with NCI-H460 lung turned out to be 57.8 µM; in the test on LOX IMVI melanoma, 45.9 µM; with ACHN renal, 83.8 µM; in the test on SF-268 CNS, 43.1 µM; with NCI-H23 lung, 66.5 µM; with SF-539 CNS, 23 µM. Moreover, the TGI in the test with NCI/ADR-RES ovarian turned out to be 38.3 µM; with SW-620 colon, 74.3 µM.

`CCN1CCC(CC(=O)Nc2n[nH]c3nnc(-c4cccc(F)c4F)cc23)CC1`: the GI50 with NCI-H460 lung is above 25 µM; in the test on LOX IMVI melanoma, above 25 µM; in the test on ACHN renal, above 25 µM; with SF-268 CNS it was above 25 µM; in the test with NCI-H23 lung it was above 25 µM; in the test with SF-539 CNS, above 18.9 µM. For the same compound, the GI50 in the test with NCI/ADR-RES ovarian, in the test with CCRF-CEM leukemia, in the test on SK-MEL-28 melanoma and in the test on SW-620 colon was above 25 µM in each case. Further, the concentration for total growth inhibition (TGI) in the test on NCI-H460 lung, in the test on LOX IMVI melanoma, with ACHN renal, with SF-268 CNS, in the test with NCI-H23 lung and in the test with SF-539 CNS was above 25 µM in each case. Moreover, the TGI with NCI/ADR-RES ovarian, in the test with CCRF-CEM leukemia, in the test with SK-MEL-28 melanoma and with SW-620 colon was above 25 µM throughout.

For `Oc1c(C(Nc2ccccn2)c2cccc(Oc3ccccc3)c2)ccc2cccnc12` (stereo not given), the GI50 with NCI-H460 lung was 0.365 µM; with LOX IMVI melanoma it was 0.468 µM; with ACHN renal, 0.41 µM; with SF-268 CNS, 0.518 µM; in the test on NCI-H23 lung, 0.839 µM; in the test on SF-539 CNS, 0.372 µM. Further, the concentration for 50% growth inhibition (GI50) is 0.416 µM in the test with NCI/ADR-RES ovarian, 0.477 µM in the test with CCRF-CEM leukemia, 0.63 µM in the test on SK-MEL-28 melanoma and 0.422 µM in the test on SW-620 colon. The TGI is 10.5 µM with NCI-H460 lung; 16.7 µM with LOX IMVI melanoma; 7.2 µM in the test with ACHN renal; 14.3 µM in the test on SF-268 CNS; above 100 µM with NCI-H23 lung; 3.56 µM with SF-539 CNS. The TGI in the test with NCI/ADR-RES ovarian was above 100 µM; in the test with CCRF-CEM leukemia it was above 100 µM; with SK-MEL-28 melanoma, 17.8 µM; in the test with SW-620 colon, 20.7 µM.

As to `CCCCCCC1N=C(N)N=C(N)N1c1cccc(Cl)c1` (stereo not given), the 50% growth inhibitory concentration (GI50) in the test with NCI-H460 lung was 0.0873 µM; with LOX IMVI melanoma, 0.0917 µM; in the test on ACHN renal it was 9.28 µM; in the test with SF-268 CNS, 0.0591 µM; in the test with NCI-H23 lung it was 0.496 µM; with SF-539 CNS, 0.0846 µM. The GI50 is 75.8 µM in the test with NCI/ADR-RES ovarian, 0.442 µM with CCRF-CEM leukemia, 2.34 µM in the test on SK-MEL-28 melanoma and 0.188 µM in the test on SW-620 colon. Moreover, the total growth inhibition concentration (TGI) in the test on NCI-H460 lung was 12.7 µM; in the test with LOX IMVI melanoma, 13.2 µM; in the test with ACHN renal it was above 100 µM; in the test on SF-268 CNS it was 11.5 µM; in the test on NCI-H23 lung it was 15 µM; in the test on SF-539 CNS, 5.76 µM. In addition, the TGI in the test with NCI/ADR-RES ovarian was above 100 µM; with CCRF-CEM leukemia, above 66.8 µM; in the test with SK-MEL-28 melanoma it was 17.4 µM; in the test with SW-620 colon, 15.9 µM.

As to `N#CC(C#N)=CNCCN1CCN(C=C(C#N)C#N)CC1`, the concentration for total growth inhibition (TGI) with NCI-H460 lung, in the test with LOX IMVI melanoma, in the test with ACHN renal, in the test with SF-268 CNS, in the test with NCI-H23 lung and with SF-539 CNS was above 100 µM in each case. Also, the TGI with NCI/ADR-RES ovarian, in the test on SK-MEL-28 melanoma and in the test on SW-620 colon was above 100 µM in each case.

Take `O=C(CN1CCN(Cc2ccccc2Cl)CC1)NC1CC(=O)c2c(Br)sc(Br)c21` (stereo not given): the GI50 with NCI-H460 lung is 18.3 µM; in the test with LOX IMVI melanoma, 18.6 µM; with ACHN renal, 35.1 µM; in the test on SF-268 CNS, 19 µM; in the test with SF-539 CNS, 20.3 µM; in the test with NCI/ADR-RES ovarian, 19.6 µM. The GI50 in the test with CCRF-CEM leukemia was 20.7 µM; in the test with SK-MEL-28 melanoma, 18.1 µM; in the test with SW-620 colon, 19.8 µM. The total growth inhibition concentration (TGI) in the test with NCI-H460 lung was 35.2 µM; with LOX IMVI melanoma, 35.8 µM; with ACHN renal it was above 100 µM; in the test on SF-268 CNS, 36.7 µM; with SF-539 CNS, 36.1 µM; in the test on NCI/ADR-RES ovarian it was 41.9 µM. Besides, the concentration for total growth inhibition (TGI) in the test on CCRF-CEM leukemia was 54.8 µM; in the test with SK-MEL-28 melanoma it was 32.2 µM; in the test with SW-620 colon, 36.6 µM.

Regarding `CCn1c(-c2nonc2N)nc2c(C#CC(C)(C)O)ncc(OC3CCNCC3)c21`, the GI50 with NCI-H460 lung is 6.86 µM; with LOX IMVI melanoma, 8.5 µM; with ACHN renal it was above 25 µM; in the test on SF-268 CNS it was 16.6 µM; in the test on NCI-H23 lung it was above 23.7 µM; in the test on SF-539 CNS, 2.95 µM. The GI50 is above 25 µM with NCI/ADR-RES ovarian, 5.18 µM with CCRF-CEM leukemia, 14.9 µM in the test with SK-MEL-28 melanoma and 10.3 µM in the test with SW-620 colon. Further, the concentration for total growth inhibition (TGI) in the test with NCI-H460 lung, in the test with LOX IMVI melanoma, in the test on ACHN renal, in the test on SF-268 CNS, with NCI-H23 lung and in the test on SF-539 CNS was above 25 µM each time. In addition, the TGI with NCI/ADR-RES ovarian, with CCRF-CEM leukemia, in the test with SK-MEL-28 melanoma and in the test with SW-620 colon was above 25 µM in each case.
